PMC9399405, “CD8 T cell function and cross-reactivity explored by stepwise increased peptide-HLA versus TCR affinity” (Frontiers in Immunology, 2022)

Test system: HLA-A2
Assay: Blue peptide (Cy5-labeled HBVc) kinetic and isotherm determination
Type: binding, human
Method: In short, for kon measurements on T2 (HLA-A2^pos) and C1R-A3 (HLA-A2^neg) cells, baseline Cy5 cell auto-fluorescence was recorded for 30s with an LSRII instrument. Titrated amounts of Cy5-labeled HBVc blue peptide (from 1 pM to 1 uM final concentration) were then added to the tube and association of the blue peptide to HLA-A2 was recorded for 5 minutes. For koff dissociation assays, 2x10^6 HLA-A2^pos (T2) and HLA-A2^neg (C1R-A3) cells were stained with 1 μM blue peptide and incubated for 1h in the dark. After washing, baseline Cy5 staining was recorded for 30s, before adding excess of FACS buffer and recording fluorescence intensity (gMFI) for 1h under temperature control. Additionally, isotherm titration experiments were performed to validate the value of the blue peptide dissociation equilibrium constant KD. Cells were stained with titrated amounts of the blue peptide (from 1 pM to 1 uM) for 1h at 4°C or 37°C. After washing, Cy5 gMFI was recorded on an LSRII instrument to determine concentration-associated maximal staining at equilibrium conditions (n = 5). All kinetic and isotherm analyses were done with the corresponding best fit equations using Prism software (GraphPad, v.9.1.1) and correction of non-specific staining values found on control HLA-A2^neg cells (nonlinear regression for kon = association kinetics - one conc. of ligand, for koff = dissociation/one phase exponential decay and for KD = one site - total and nonspecific binding).

[1] = HLA-A2pos and HLA-A2neg cells in parallel, flow cytometry

## FLPSDC*-(Cy5)-FPSV [blue peptide]
[1]
  peptide:HLA association kon: 23000 M⁻¹ s⁻¹
  peptide:HLA dissociation koff: 0.0012 s⁻¹
T2 (HLA-A2pos) vs C1R-A3 (HLA-A2neg) cells, isotherm titration 1 pM to 1 uM, 1h, n = 5, read-out: equilibrium dissociation constant KD for HLA-A2
  Kd: 52.6 nM
